Laboratory results as given in patent publication US6890762B1, “Method for measuring physiocochemical properties of tissues of cells, method for examining chemicals, and apparatus therefor” (Matsushita Technical Information Services Co., Ltd., priority 1996, dated 2005).

What was measured:
slice of a rat heart = assay: spontaneous activity potential of cultivated rat heart slice on integrated multiple electrode; format: cell-based; settings: final concentration of 1 mM, added on the fifth day of the culturing
Description: This slice of a rat heart has been cultivated as explained below. […] The same culture medium as described in the first example was used. The structure of the integrated multiple electrode 2 and the surface processing was the same as described in the first example. In order to increase the adhesive strength between the tissue (the cells) and the microelectrodes 11 of the integrated multiple electrode 2, collagen gel (under 50 μm thick) has been applied to the surface of the integrated multiple electrode 2 before the culturing. Then the rat heart slice is placed and cultivated on the collagen gel where the microelectrodes 11 are. The rat heart slice is prepared, so that a sinoatrial node or an atrioventricular node is included. […] This culturing method is explained below. (a) A heart is taken from a two days old SD rat, and immersed in a Hanks' balanced salt solution cooled with ice water, with 0.25 vol. % D-glucose. The hanks' balanced salt solution is renewed several times to rinse out the blood completely. (b) Careful incision and preparation of a heart slice is performed, so that a sinoatrial node and an atrioventricular node are included in the heart slice. (c) The slice is adjusted with micro-scissors used in eye surgery to a size of about 1×1 mm. […]

[1] = system: slice of the cerebral cortex of a rat; assay: induced potential of cultivated rat cerebral cortex slice on integrated multiple electrode; format: cell-based; settings: for chronic effect on the induced potential: 3 days after addition on the third day of culturing
Description: In this example, a slice of the cerebral cortex of a rat was used as nervous tissue and cultivated with the culturing method described below. As a change in the physical and chemical environment, the stimulant drug methamphetamine has been added to the culturing fluid. Furthermore, the electrophysiological properties of the tissue or cells, that is the induced potential when a stimulus has been applied, were measured as the physical and chemical properties of the tissue or cells.
Preceding the culturing of the cells, the surface of the integrated multiple electrode 2 was covered with collagen gel not thicker than 50 μm, to promote the adhesive strength between the microelectrodes 11 of the integrated multiple electrode 2 and the cells. Then the cerebral cortex slice of the rat (not thicker than 500 μm) was placed and cultivated on top of the microelectrodes 11 and the collagen gel. FIGS. 10(a)-(e) show the measured induced potentials 30 min after methamphetamine has been added in different concentrations to the culture medium on the sixth day of culturing, and FIGS. 11(a)-(c) show the measured induced potentials 3 days after methamphetamine has been added in different concentrations to the culture medium on the third day of culturing, together with the induced potential before the addition of the methamphetamine. In other words, FIGS. 10(a)-(e) show the acute effect of the methamphetamine and FIGS. 11(a)-(c) show the chronic effect of the methamphetamine.
(4-2) Culturing Method for a Rat Cerebral Cortex Slice
(a) A brain is taken from a two days old SD rat, and immersed in a Hanks' balanced salt solution cooled in iced water, with 0.25 vol. % D-glucose.
(b) In the cooled Hanks' balanced salt solution with 0.25 vol.% D-glucose, the meninges attached to the brain is removed carefully without damaging the cerebral cortex with a sharp-tipped pincette.
(c) A section is made with micro-scissors used in eye surgery, about 500 μm from the corpus callosum on one side of the cerebral cortex from which the meninges has been removed along the corpus callosum from the occipital lobe towards the frontal lobe.
(d) Next, a slice is prepared with micro-scissors used in eye surgery by cutting vertically 200-300 μm into the cerebral cortex from the sectional plane described under (c).
(e) Furthermore, the slice is adjusted with micro-scissors used in eye surgery to a size of about 1×1 mm.
(f) The integrated multiple electrode, the preparation of which has been explained under “(3) Surface Processing of the Integrated Multiple Electrode 2”, is taken out of the CO2 incubator, the adjusted slice of the cerebral cortex is carefully taken up without damaging it with a pipette with at least 2 mm opening diameter, and moved into the well of the integrated multiple electrode 2.
(g) The cerebral cortex is placed on the microelectrodes 11 with a layered portion pointing upwards, carefully so as not to damage the cerebral cortex, using a Pasteur pipette, the tip of which has been smoothed by heating with a burner.
(h) After the slice of the cerebral cortex has been placed on the integrated multiple electrode 2, the amount of the culture medium is adjusted so that the bottom of the slice is immersed in the culture medium and the top of the slice is in the open air.
(i) After the adjustment of the culture medium, the integrated multiple electrode 2 is placed on a Petri dish, about 5 mL of 37° C. sterile water is poured onto the Petri dish to prevent dehydration of the culture medium, and the integrated multiple electrode 2 is again placed in the CO2 incubator.
(j) While observing the amount of the culture medium, the culture medium was renewed once every day. The amount of the culture medium is adjusted as described in (i).

## CNCC(O)c1ccc(O)c(O)c1 (centres unmarked) [adrenaline]
Slice of a rat heart
  beat frequency of the spontaneous activity potential versus before the addition: noticeably higher

## CN[C@@H](C)Cc1ccccc1 [methamphetamine]
[1]; 0.01 mM methamphetamine
  chronic effect on the induced potential: disappeared
[1]; 0.1 mM methamphetamine, 30 min after addition on the sixth day of culturing
  acute effect on the induced potential: no noticeable acute effect
[1]; 0.1 mM methamphetamine
  chronic effect on the induced potential: disappeared almost completely
[1]; 0.5 mM methamphetamine, 30 min after addition on the sixth day of culturing
  acute effect on the induced potential (deflection): somewhat smaller
[1]; 1 mM methamphetamine, 30 min after addition on the sixth day of culturing
  acute effect on the induced potential: disappeared almost completely
[1]; after the methamphetamine has been removed, chronic exposure
  induced potential after removal of the substance (chronic): did not recover
[1]; methamphetamine removed from the fluid, culture medium returned to usual composition
  induced potential after removal of the substance (acute): recovered to almost the same condition as before
